Assays:
Erk1 = biological target: T1, Erk1 (Homo sapiens, UniProt P27361); test: Protein Mass Modification Assay (intact protein MALDI, 60 min, 10-fold excess of compound); type: binding
T1 construct: purchased Millipore 14-439
Summary of the method: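 Human Erk1 was incubated 60 min at room temperature with a 10-fold molar excess of compound, then analysed as intact protein by MALDI with sinapinic acid matrix. The centroid mass shift versus untreated protein was divided by compound molecular weight to give percent modified protein.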

[1] = system: A375 cells (malignant melanoma); test: Inhibition of cancer cell proliferation, A375 (CellTiterGlo, 72 hours); type: cell-based; conditions: Homo sapiens, A-375
Summary of the method: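 A375 melanoma cells, 3000/well, exposed 72 h at 37 °C to compound in 3-fold serial dilutions (solution added as 2× stock starting at 5,000 nM in serum-free DMEM). CellTiterGlo luminescence converted to cell number via standard curve; % inhibition vs untreated control, GI50 from curve fit.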

[2] = system: HT-29 cells (colorectal adenocarcinoma); test: Inhibition of cancer cell proliferation, HT-29 (CellTiterGlo, 72 hours); type: cell-based; conditions: Homo sapiens
Summary of the method: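 HT-29 cells seeded at 3000/well, then treated with 3-fold serial dilutions from a 5,000 nM two-fold solution in serum-free RPMI1640, untreated wells as control, for 72 h at 37° C. CellTiterGlo luminescence converted to cell number via a standard curve; GI50 from percent inhibition versus untreated growth.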

MEK1 activated ERK1 = biological target: T2, MEK1 activated ERK1 (Homo sapiens, UniProt P27361); test: Omnia continuous-read kinase assay for potency against MEK1 activated ERK1; type: biochemical; conditions: MEK1 activated ERK1, ATP at KM; read-out: ERK1 Omnia WT ATP KM IC50
T2 construct: purchased Millipore (Billerica, Mass.) 14-439-K
T2 sequence (P27361 whole entry): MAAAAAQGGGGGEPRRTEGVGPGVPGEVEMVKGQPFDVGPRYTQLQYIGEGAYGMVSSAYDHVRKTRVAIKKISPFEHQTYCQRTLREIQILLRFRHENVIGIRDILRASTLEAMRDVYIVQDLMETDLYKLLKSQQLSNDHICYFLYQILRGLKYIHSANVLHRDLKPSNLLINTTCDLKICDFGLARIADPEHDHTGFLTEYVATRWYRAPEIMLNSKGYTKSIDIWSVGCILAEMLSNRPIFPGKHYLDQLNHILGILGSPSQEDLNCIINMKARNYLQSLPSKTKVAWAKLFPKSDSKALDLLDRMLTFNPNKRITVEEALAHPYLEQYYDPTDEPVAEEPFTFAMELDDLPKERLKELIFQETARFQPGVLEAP
Summary of the method: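 Apparent IC50 came from initial reaction slopes (RFU vs time) plotted against log inhibitor with a variable-slope fit. Reactions were started with ERK1 (4 nM final) added to 50 μM ATP, roughly at its appKM, and 10 μM Sox-conjugated ST17 peptide in 20 mM Tris pH 7.5, 5 mM MgCl2. Fluorescence was monitored every 71 seconds.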

[3] = system: HCT116 cells (colorectal carcinoma); test: Inhibition of cancer cell proliferation, HCT116 (CellTiterGlo, 72 hours); type: cell-based; conditions: Homo sapiens, HCT-116
Experimental: Measurement of Inhibition of Cancer Cell Proliferation (HCT116/Colorectal Carcinoma)
The following protocol used a HCT116 cell line, which cell line is a model for colorectal carcinoma. HCT116 cells were split and 3000 cells in 100 μl of growth medium were added per well of a flat-bottom 96-well plate. A two-fold test compound solution in serum-free RPM1640 was made, starting at 5,000 nM. Then, 3-fold serial dilutions were made across the plate from well 1 to well 11. Well 12, the last well in a row on the plate, was left as untreated control. 100 μl compound solutions were then transferred to the wells, so the total volume of media was 200 μl per well. Plates were returned to a 37° C. incubator, and the cells were cultured for 72 hours. To measure cell proliferation after 72 hours, media was discarded from the plates, 50 μl/well of fresh medium was added, and 50 μl CellTiterGlo solution was added (Promega Cat#G7573). The plate was covered with a dark lid and incubated for 10 min. A white sealing tape was applied to the bottom of the plate, and the plate was read in a luminescence plate reader. […] 50 μl CellTiterGlo was added per well, and the plate was read in a luminescence plate reader after 10 min. The reading was plotted vs. cell number to generate a standard curve and the equation of the curve fit. The compound-treated sample luminescence readings were converted to cell numbers using the curve-fit equation. The percent of inhibition, using untreated control as 100% growth, was then calculated. GI50 was then calculated by GraphPad Prism.

[4] = system: ERK1/2 phosphorylation of p90RSK in HT29 cells; test: pRSK MSD Assay in HT29 cells; type: cell-based; conditions: Homo sapiens, HT-29, read-out: ERK1/ERK2 PRSK MSD HT29 EC50
Summary of the method: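 Serum-starved HT29 cells (0.1% FBS overnight) treated with test compound for 120 min at 37° C, then lysed with protease and phosphatase inhibitors. Phospho-p90RSK quantified by MSD sandwich immunoassay: RSK capture antibody, phospho-RSK detection antibody plus Sulfo-tagged antibody, electrochemiluminescence read.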

ERK1/ERK2 = test: Measurement of Erk occupancy with biotinylated covalent probe I-299 (HT-29); type: cell-based; conditions: HT-29 cells
Experimental: Measurement of Erk Occupancy with Biotinylated Covalent Probe
This experiment measured occupancy of the ERK1/ERK2 target by compounds according to the invention. This experiment was conducted using the Mesoscale Discovery test kit (Cat. # N45107B). One day before the assay, cells were split and added at 50,000 cells per well to a flat-bottom 96 well plate in 200 μl of growth medium. The next day, the medium was discarded, 100 μl medium containing test compound was added, and the plate was incubated at 37° C. for 120 minutes. The plate was rinsed once with PBS, and 50 μl lysis buffer with test compound was added. The plate was incubated at 4° C. for 30 min, and 30 μl of lysate was transferred to a plate to capture total and phosphor-Erk. Biotinylated probe 1-299 was diluted in lysis buffer and added to each well to a final concentration of 0.2 μM. The plate was incubated for 2 hr under constant shaking at room temperature. The plate was washed 3 times with MSD wash buffer. To detect the biotinylated probe bonding, tagged streptavidin was added (Mesoscale Discovery, Cat. # R32AD-1) at 1 μg/ml, 25 μl/well, followed by a 60 min incubation under shaking. The plate was washed 3 times, 150 μl MSD Read Buffer (Mesoscale Discovery, Cat. R61TX) was added and the plate was read in a plate reader manufactured by MSD. Percent occupancy by test compound at Erk was calculated by comparing the chemiluminescence readings from treated cells as compared to the chemiluminescence readings in untreated controls (which are defined as 100% probe bonding or 0% test compound occupancy). The amount of covalent probe signal divided by the amount of ERK signal for samples with no test compound treatment represents the maximum probe signal (MPS). In samples treated with test compound prior to covalent probe, the ratio of probe signal to ERK signal (the test probe signal, TPS) was reduced by the degree of target occupancy by the test compound which blocks covalent probe binding. The difference between the MPS and the TPS, divided by the MPS gave the target occupancy by the test compound. This ratio was then expressed as a percent occupancy. Results from this assay are provided in Table A below under the column “Occupancy EC50 (nM) HT-29.”

T1 sequence (P27361 whole entry): as above

| GI50 [1] | GI50 [2] | GI50 [3] | EC50 [4] | EC50 (ERK1/ERK2) | Compound | ERK1 Mass Mod (%) (Erk1) | IC50 (MEK1 activated ERK1) |
| --- | --- | --- | --- | --- | --- | --- | --- |
| < 100 nM | < 100 nM | < 100 nM | < 100 nM | – | C=CC(=O)Nc1cc(C)ccc1Nc1nc(N[C@H]2CCCN(C(=O)CO)C2)ncc1C(F)(F)F [Compound I-20, (S)—N-(2-((2-((1-(2-Hydroxyacetyl)piperidin-3-yl)amino)-5-(trifluoromethyl)pyrimidin-4-yl)amino)-5-methylphenyl)acrylamide] | – | – |
| 101 to 500 nM | 101 to 500 nM | > 1000 nM | – | – | C=CC(=O)Nc1ccccc1Nc1nc(N[C@H]2CCCN(C(=O)C=O)C2)ncc1C(F)(F)F [Compound I-52, (S)—N-(2-((2-((1-(2-Oxoacetyl)piperidin-3-yl)amino)-5-(trifluoromethyl)pyrimidin-4-yl)amino)phenyl)acrylamide] | – | 101 to 500 nM |
| < 100 nM | < 100 nM | < 100 nM | < 100 nM | – | C=CC(=O)Nc1ccccc1Nc1nc(N[C@H]2CCCN(C(C)=O)C2)ncc1C(F)(F)F [Compound I-10, (S)—N-(2-(2-(1-acetylpiperidin-3-ylamino)-5-(trifluoromethyl)pyrimidin-4-ylamino)phenyl)acrylamide] | – | – |
| < 100 nM | < 100 nM | < 100 nM | < 100 nM | – | C=CC(=O)Nc1cc(C)ccc1Nc1nc(N[C@H]2CCCN(C(C)=O)C2)ncc1C(F)(F)F [Compound I-19, (S)—N-(2-((2-((1-Acetylpiperidin-3-yl)amino)-5-(trifluoromethyl)pyrimidin-4-yl)amino)-5-methylphenyl)acrylamide] | – | – |
| < 100 nM | < 100 nM | < 100 nM | < 100 nM | – | C=CC(=O)Nc1ccccc1Nc1nc(Nc2cncc(OC)c2)ncc1C(F)(F)F [Compound I-86, N-(2-((2-((5-Methoxypyridin-3-yl)amino)-5-(trifluoromethyl)pyrimidin-4-yl)amino)phenyl)acrylamide] | E (a mass modification of ≧70%) | – |
| < 100 nM | < 100 nM | < 100 nM | < 100 nM | – | C=CC(=O)Nc1ccccc1Nc1nc(N[C@H]2CCCN(C(=O)CO)C2)ncc1Cl [Compound I-123, (S)—N-(2-((5-chloro-2-((1-(2-hydroxyacetyl)piperidin-3-yl)amino)pyrimidin-4-yl)amino)phenyl)acrylamide] | – | – |
| – | < 100 nM | – | < 100 nM | < 100 nM | C=CC(=O)Nc1ccccc1Nc1nc(Nc2cc(S(N)(=O)=O)ccc2C)ncc1Cl [Compound I-205, N-(2-((5-chloro-2-((2-methyl-5-sulfamoylphenyl)amino)pyrimidin-4-yl)amino)phenyl)acrylamide] | – | – |
| – | < 100 nM | – | < 100 nM | < 100 nM | C=CC(=O)Nc1ccccc1Nc1nc(Nc2cc(C(N)=O)c(F)cc2C)ncc1Cl [Compound I-214, 5-((4-((2-acrylamidophenyl)amino)-5-chloropyrimidin-2-yl)amino)-2-fluoro-4-methylbenzamide] | – | – |
| 101 to 500 nM | < 100 nM | 101 to 500 nM | < 100 nM | – | C=CC(=O)Nc1cc(C)ccc1Nc1nc(Nc2cc(OC)ncc2C)ncc1Cl [Compound I-241, N-(2-((5-chloro-2-((2-methoxy-5-methylpyridin-4-yl)amino)pyrimidin-4-yl)amino)-5-methylphenyl)acrylamide] | – | – |
| < 100 nM | < 100 nM | 101 to 500 nM | 101 to 500 nM | – | C=C(F)C(=O)Nc1ccccc1Nc1nc(N[C@H]2CCCN(C(C)=O)C2)ncc1C(F)(F)F [Compound I-55, (S)—N-(2-((2-((1-Acetylpiperidin-3-yl)amino)-5-(trifluoromethyl)pyrimidin-4-yl)amino)phenyl)-2-fluoroacrylamide] | – | – |
| > 1000 nM | 501 to 999 nM | > 1000 nM | 501 to 999 nM | – | CCC(=O)Nc1ccccc1Nc1nc(N[C@H]2CCCN(C(=O)CO)C2)ncc1Cl [Compound I-311, (S)—N-(2-((5-chloro-2-((1-(2-hydroxyacetyl)piperidin-3-yl)amino)pyrimidin-4-yl)amino)phenyl)propionamide] | – | – |
| < 100 nM | < 100 nM | 501 to 999 nM | 101 to 500 nM | – | C=CC(=O)Nc1cc(OC)ccc1Nc1nc(Nc2cc(C(N)=O)ccc2C)ncc1Cl [Compound I-237, 3-((4-((2-acrylamido-4-methoxyphenyl)amino)-5-chloropyrimidin-2-yl)amino)-4-methylbenzamide] | – | – |
| – | < 100 nM | – | 101 to 500 nM | < 100 nM | C=CC(=O)Nc1cc(F)ccc1Nc1nc(Nc2cc(C(N)=O)ccc2C)ncc1Cl [Compound I-206, 3-((4-((2-acrylamido-4-fluorophenyl)amino)-5-chloropyrimidin-2-yl)amino)-4-methylbenzamide] | – | – |
| < 100 nM | < 100 nM | 101 to 500 nM | < 100 nM | – | C=CC(=O)Nc1ccccc1Nc1nc(Nc2cc(OC)ncc2C)ncc1Cl [Compound I-240, N-(2-((5-chloro-2-((2-methoxy-5-methylpyridin-4-yl)amino)pyrimidin-4-yl)amino)phenyl)acrylamide] | – | – |
| – | 101 to 500 nM | – | < 100 nM | < 100 nM | C=CC(=O)Nc1ccccc1Nc1nc(Nc2cc(C(N)=O)ccc2C)ncc1Cl [Compound I-319, 3-(4-(2-acrylamidophenylamino)-5-chloropyrimidin-2-ylamino)-4-methylbenzamide] | – | – |

| Compound | GI50 [1] | GI50 [2] | GI50 [3] | EC50 [4] | EC50 (ERK1/ERK2) | ERK1 Mass Mod (%) (Erk1) | IC50 (MEK1 activated ERK1) |
| --- | --- | --- | --- | --- | --- | --- | --- |
| C=CC(=O)Nc1cc(C)ccc1Nc1nc(Nc2cc(C(C)=O)ccc2C)ncc1Cl [Compound I-239, N-(2-((2-((5-acetyl-2-methylphenyl)amino)-5-chloropyrimidin-4-yl)amino)-5-methylphenyl)acrylamide] | 101 to 500 nM | 101 to 500 nM | 501 to 999 nM | – | – | E (key: E: a mass modification of ≧70%; F: a mass modification of 31-69%; G: a mass modification ≦30%) | 101 to 500 nM |
| C=CC(=O)Nc1cc(C)ccc1Nc1nc(N[C@H]2CCCN(C(C)=O)C2)ncc1Cl [Compound I-139, (S)—N-(2-((2-((1-acetylpiperidin-3-yl)amino)-5-chloropyrimidin-4-yl)amino)-5-methylphenyl)acrylamide] | < 100 nM | < 100 nM | < 100 nM | < 100 nM | – | E (a mass modification of ≧70%) | – |
